Tests used:
HSALR mice = experiment: Myotonic runs recorded in muscle of treated HSALR mice; assay type: in vivo; details: gastrocnemius muscle, 40 mg/kg IP once a day for 14 days, p<0.05 vs vehicle
Text: (§1) For all animals the recording electrode was inserted into the test muscle 20 times. The number of myotonic runs ≧1 second in the gastrocnemius muscle of individual HSA^LR mice treated with either the saline control or RCN-001 are shown.
(§2) Importantly, RCN-001 reduces the number of myotonic runs of ≧1 second (p<0.05) (FIG. 5), total time of myotonic runs ≧1 sec (4.04 s±2.9 vehicle; 0.99 s±1.4 RCN-001; p<0.05) and length of the longest run (1.96 s±0.97 vehicle; 0.73 s±0.71 RCN-001; p<0.05) in the gastrocnemius muscle of HSA^LR mice. […] Methods are detailed in the legend of FIG. 5.
Treatment in HSALR mice. The HSALR transgenic mice expressing (CTG)250 in the 3′UTR of the human skeletal actin mRNA as described in Mankodi et al, 2000 were utilized for this study (a generous gift from Dr. Charles Thornton). Treatment in mice was done by intraperitoneal injection using 40 mg/kg once a day for 7 or 14 days of RCN-001 or vehicle alone. Total RNA was isolated from skeletal muscle of treated HSALR mice using Trizole (Invitrogen, USA) following the manufacture's protocol. cDNA synthesis and PCR was performed as described in Dansithong et al, 2008. PCR amplification was carried out with the following primers—

[1] = test system: CUG-RNA foci in DM1 myoblasts; experiment: FISH analysis of nuclear CUG-RNA foci in DM1 myoblasts; assay type: cell-based, human; details: 2 μM, 4 days (not shown)
[2] = test system: Clcn1, lbd3 and Serca-1 RNA splicing in HSALR mice; experiment: RT-PCR splicing analysis of skeletal muscle RNA of treated HSALR mice; assay type: in vivo; details: 40 mg/kg i.p. each day for 7 days
Text: A. Total RNA was isolated from age and gender matched wild-type mice, HSA^LR mice and HSA^LR mice treated with either saline or 40 mgs/kg of RCN-001 injected i.p. once a day for 7 days. Subsequent to treatment RNA was isolated from skeletal muscles and subjected to RT-PCR analysis using the indicated primers sets for Clcn1, Lbd3 and Serca-1 RNAs. GAPDH RNA was amplified in parallel as an internal control. The results of two experiments are shown. B. Bar graph representation of rescue achieved is shown. C. The relative levels of exon inclusion was measured by densitometry and tabulated as mean % exon inclusion +/− standard deviation.
(§3) Furthermore, CUG foci, abnormal RNA splicing, myotonia and reduced Clcn1 protein levels are reversed in HSA^LR mice treated with RCN-001: Age and gender matched HSA^LR mice were treated with either vehicle or 40/mgs/kg of RCN-001 injected i.p. each day for 7 days. After treatment CUG foci were examined and RNA isolated from skeletal muscle was subjected to RT-PCR analysis to examine the efficacy of RCN-001 in correcting the splice defects of Clcn1, lbd3 and Serca-1 RNAs, which are abnormally spliced in DM1 (20).
Treatment in HSALR mice. […]
The relative band intensities were quantified by densitometry analyses and the percent of exon inclusion was calculated as [exon inclusion/(exon inclusion+exon exclusion)]×100.

CUG foci in HSALR mice = experiment: CUG foci (FISH) in muscle of treated HSALR mice; assay type: in vivo; details: 40 mg/kg i.p. each day for 7 days
Procedure: Red: CUG foci, detected with a (CAG)10Cy3 probe Blue: DAPI stain of nuclei.
as §3
CUG-RNA foci were detected by performing FISH on untreated DM1 myoblasts and DM1 myoblasts following treatment. For FISH analysis, DM1 myoblasts were plated on a 24-well clear bottom polystyrene plate with circular glass coverslips followed by treatment. Prior to FISH analysis, cells were fixed using 4% paraformaldehyde in 1×PBS for 20 min at room temperature. […] CUG-RNA foci were observed as a red signal using fluorescence microscopy. […] Endogenous SHARP was detected using SHARP polyclonal antibodies from Bethyl at a dilution of 1:1000. […] Chloride channel 1 (Clcn1 a.k.a. CIC-1) was detected using CIC-1 polyclonal antibodies from Santa Cruz. […]

SHARP = experiment: Nuclear SHARP levels in treated HSALR mice; assay type: in vivo; details: 40 mg/kg i.p. each day for 7 days (not shown)
Procedure: as §3
(§4) CUG-RNA foci were detected by performing FISH on untreated DM1 myoblasts and DM1 myoblasts following treatment. For FISH analysis, DM1 myoblasts were plated on a 24-well clear bottom polystyrene plate with circular glass coverslips followed by treatment. Prior to FISH analysis, cells were fixed using 4% paraformaldehyde in 1×PBS for 20 min at room temperature. FISH analysis was performed using a Cy3 conjugated (CAG)10 oligonucleotide probe (Integrated DNA Technologies, Inc.) as described by Taneja et al, 1995 and Dansithong et al, 2005. CUG-RNA foci were observed as a red signal using fluorescence microscopy. […] Endogenous SHARP was detected using SHARP polyclonal antibodies from Bethyl at a dilution of 1:1000. […] Chloride channel 1 (Clcn1 a.k.a. CIC-1) was detected using CIC-1 polyclonal antibodies from Santa Cruz. […]

Clcn1 = experiment: Anti-Clcn1 staining of gastrocnemius muscle sections of HSALR mice; assay type: in vivo; details: 14 days treatment
Text: as §1, §2, §4

Compound: CCCCCCc1cc2cc(-c3nnc(-c4cccc(OC)c4)o3)c(=O)oc2cc1O [RCN-001]
- number of myotonic runs of ≧1 second (HSALR mice): reduces
- decrease in cells containing 3 or more foci [1]: 2 fold
- increase in cells containing no foci [1]: 5 fold
- rescue of splice defects of Clcn1, lbd3 and Serca-1 RNAs [2]: achieved rescue of splice defects that was comparable to results obtained with AON
- load of the CUG foci (CUG foci in HSALR mice): reduced
- nuclear SHARP levels (SHARP): allowed nuclear SHARP levels to be re-established
- chloride channel (Clcn1) levels (Clcn1): re-establish normal chloride channel levels

Reference: US20140121236A1, “Compositions and Methods for Treating Myotonic Dystrophy Type 1” (UNIVERSITY OF SOUTHERN CALIFORNIA, priority 2012, published 2014)
